Laboratory results published in the NIST ThermoML archive (doi:10.1021/je049808f).

What was measured:
[1] = 298.15 K, Liquid; for viscosity: 100 kPa; for mass density: 101.33 kPa
[2] = cn = amount concentration of the nth substance listed, in mol/dm3; conditions: 100 kPa, Liquid

CCO [ethanol]
[1]
Conditions	mass density [kg/m3]	viscosity [mPa·s]
–	785.2	1.082

CO [methanol]
[1]
Conditions	mass density [kg/m3]	viscosity [mPa·s]
–	786.2	0.545

[I-].[K+] [potassium iodide] + CO
[2]
Conditions	mass density [kg/m3]	viscosity [mPa·s]
298.15 K, c1 = 0.0906	800.8	0.578
298.15 K, c1 = 0.1458	809	0.598
298.15 K, c1 = 0.1806	814.3	0.609
298.15 K, c1 = 0.2451	824.3	0.628
298.15 K, c1 = 0.3767	845.3	0.665
298.15 K, c1 = 0.4151	851.6	0.677
298.15 K, c1 = 0.4787	862.2	0.695
298.15 K, c1 = 0.5381	872.4	0.724
298.15 K, c1 = 0.614	885.4	0.737
298.15 K, c1 = 0.6541	892.7	0.75
303.15 K, c1 = 0.0901	796.1	0.539
303.15 K, c1 = 0.1449	804.3	0.558
303.15 K, c1 = 0.1795	809.6	0.568
303.15 K, c1 = 0.2437	819.5	0.587
303.15 K, c1 = 0.3745	840.6	0.62
303.15 K, c1 = 0.4127	846.8	0.631
303.15 K, c1 = 0.476	857.5	0.653
303.15 K, c1 = 0.535	867.6	0.664
303.15 K, c1 = 0.6106	880.5	0.685
303.15 K, c1 = 0.6505	887.8	0.697
308.15 K, c1 = 0.0895	791.3	0.504
308.15 K, c1 = 0.1441	799.6	0.522
308.15 K, c1 = 0.1785	804.9	0.532
308.15 K, c1 = 0.2423	814.8	0.548
308.15 K, c1 = 0.3724	835.8	0.58
308.15 K, c1 = 0.4104	842	0.59
308.15 K, c1 = 0.4733	852.7	0.615
308.15 K, c1 = 0.5321	862.8	0.623
308.15 K, c1 = 0.6073	875.7	0.639
308.15 K, c1 = 0.647	883	0.651
313.15 K, c1 = 0.1432	794.8	0.489
313.15 K, c1 = 0.1774	800.1	0.498
313.15 K, c1 = 0.2409	810	0.513
313.15 K, c1 = 0.3704	831.1	0.543
313.15 K, c1 = 0.4081	837.2	0.552
313.15 K, c1 = 0.4707	847.8	0.572
313.15 K, c1 = 0.5291	858	0.58
313.15 K, c1 = 0.604	870.8	0.598
313.15 K, c1 = 0.6435	878.1	0.608
